Measured values as given in patent US12391671B2, “Allosteric EGFR inhibitors and methods of use thereof” (Dana-Farber Cancer Institute, Inc., priority 2019, dated 2025).
Structures can show the parent of a compound that is named as a salt. Where two headings read alike, the source gives them in different places.

How the values were obtained:
[1] = system: EGFR mutant L858R/T790M Ba/F3 cells; assay: Ba/F3 cell proliferation model (Cell Titer Glo), EGFR L858R/T790M; format: cell-based, murine; settings: 72 hours
Text: Example 26: Ba/F3 Cell Proliferation Models
The EGFR mutant L858R and L858R/T790M Ba/F3 cells have been previously described (Zhou, W., et al. Nature 462, 2009, 1070-1074). All cell lines were maintained in RPM 1640 (Cellgro; Mediatech Inc., Herndon. CA) supplemented with 10% FBS, 100 units/mL penicillin, 100 units/mL streptomycin. The EGFR I941R mutation was introduced via site directed mutagenesis using the Quick Change Site-Directed Mutagenesis kit (Stratagene; La Jolla, CA) according to the manufacturer's instructions. All constructs were confirmed by DNA sequencing. The constructs were shuttled into the retroviral vector JP1540 using the Cre-recombination system (Agilent Technologies, Santa Clara, CA). Ba/F3 cells were then infected with retrovirus per standard protocols, as described previously (Zhou, et al, Nature 2009). Stable clones were obtained by selection in puromycin (2 μg/ml).
Growth and inhibition of growth was assessed by the Cell Titer Glo® assay (Promega, Madison, WI) and was performed according to the manufacturer's instructions. The Cell Titer Glo® assay is a luminescence-based method used to determine the number of viable cells based on quantitation of the ATP present, which is directly proportional to the amount of metabolically active cells present. Ba/F3 cells of different EGFR genotypes were exposed to compounds as a single agent or in combination with 1 μg/mL cetuximab for 72 hours and the number of cells used per experiment was determined empirically as has been previously established (Zhou, et al., Nature 2009). All experimental points were set up in triplicates in 384-well plates and all experiments were repeated at least three times. […] The curves were fitted using a non-linear regression model with a sigmoidal dose response.

EGFR L858R = EGFR L858R (Homo sapiens (Human), UniProt P00533, L858R); assay: HTRF-based EGFR biochemical assay (L858R); settings: 100 μM ATP, enzyme 0.1 nM
How it was run: (§1)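 Mutant EGFR (L858R 0.1 nM, L858R/T790M 0.02 nM) preincubated 30 min with compounds at room temperature in HEPES pH 7.0 buffer with Mg2+/Mn2+, then reacted 20 min with 1 μM biotinylated tyrosine kinase peptide and 100 μM ATP. Phosphorylation read by HTRF (Eu-cryptate anti-phosphotyrosine/streptavidin-XL665, 665/620 nm) after EDTA quench.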

EGFR L858R/T790M = EGFR L858R/T790M (Homo sapiens (Human), UniProt P00533, L858R/T790M); assay: HTRF-based EGFR biochemical assay (L858R/T790M); settings: 100 μM ATP, enzyme 0.02 nM
How it was run: as §1

[2] = Mus musculus, BaF3, single agent, read-out: Cell IC50 BaF3 EGFR L858R/T790M
[3] = in combination with 1 μg/mL cetuximab, read-out: Cell IC50 BaF3 EGFR L858R/T790M (+cetux.)

Chain of EGFR L858R (P00533 25-1210 L858R): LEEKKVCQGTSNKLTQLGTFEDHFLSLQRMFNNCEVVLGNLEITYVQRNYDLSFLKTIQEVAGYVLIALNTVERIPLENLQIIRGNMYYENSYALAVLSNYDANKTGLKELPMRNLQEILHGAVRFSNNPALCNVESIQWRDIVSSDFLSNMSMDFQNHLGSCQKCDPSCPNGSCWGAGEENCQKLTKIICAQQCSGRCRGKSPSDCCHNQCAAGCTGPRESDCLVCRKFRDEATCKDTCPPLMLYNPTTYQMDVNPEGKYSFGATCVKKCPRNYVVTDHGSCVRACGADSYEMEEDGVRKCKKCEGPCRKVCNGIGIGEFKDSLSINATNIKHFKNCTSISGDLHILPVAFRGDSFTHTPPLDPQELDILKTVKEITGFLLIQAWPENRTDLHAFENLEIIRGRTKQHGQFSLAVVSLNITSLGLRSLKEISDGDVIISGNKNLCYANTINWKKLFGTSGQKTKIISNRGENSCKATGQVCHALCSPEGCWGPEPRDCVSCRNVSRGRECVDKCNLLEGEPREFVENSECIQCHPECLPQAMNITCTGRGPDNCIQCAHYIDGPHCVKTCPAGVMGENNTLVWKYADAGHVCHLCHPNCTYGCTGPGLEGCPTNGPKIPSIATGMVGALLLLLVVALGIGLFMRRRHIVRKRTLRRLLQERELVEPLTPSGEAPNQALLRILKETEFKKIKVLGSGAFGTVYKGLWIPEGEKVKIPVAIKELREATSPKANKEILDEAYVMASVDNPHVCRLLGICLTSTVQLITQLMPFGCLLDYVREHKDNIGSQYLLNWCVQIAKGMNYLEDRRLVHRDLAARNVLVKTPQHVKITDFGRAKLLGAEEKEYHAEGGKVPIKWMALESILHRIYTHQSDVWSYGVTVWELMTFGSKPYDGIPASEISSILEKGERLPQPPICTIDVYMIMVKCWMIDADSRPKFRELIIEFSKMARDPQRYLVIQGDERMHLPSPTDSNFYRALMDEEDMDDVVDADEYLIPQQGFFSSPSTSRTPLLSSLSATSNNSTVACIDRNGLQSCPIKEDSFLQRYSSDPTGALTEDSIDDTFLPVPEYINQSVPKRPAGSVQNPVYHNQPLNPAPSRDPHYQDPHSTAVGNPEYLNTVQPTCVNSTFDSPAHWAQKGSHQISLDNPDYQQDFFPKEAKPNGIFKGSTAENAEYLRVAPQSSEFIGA
Chain of EGFR L858R/T790M (P00533 25-1210 T790M/L858R): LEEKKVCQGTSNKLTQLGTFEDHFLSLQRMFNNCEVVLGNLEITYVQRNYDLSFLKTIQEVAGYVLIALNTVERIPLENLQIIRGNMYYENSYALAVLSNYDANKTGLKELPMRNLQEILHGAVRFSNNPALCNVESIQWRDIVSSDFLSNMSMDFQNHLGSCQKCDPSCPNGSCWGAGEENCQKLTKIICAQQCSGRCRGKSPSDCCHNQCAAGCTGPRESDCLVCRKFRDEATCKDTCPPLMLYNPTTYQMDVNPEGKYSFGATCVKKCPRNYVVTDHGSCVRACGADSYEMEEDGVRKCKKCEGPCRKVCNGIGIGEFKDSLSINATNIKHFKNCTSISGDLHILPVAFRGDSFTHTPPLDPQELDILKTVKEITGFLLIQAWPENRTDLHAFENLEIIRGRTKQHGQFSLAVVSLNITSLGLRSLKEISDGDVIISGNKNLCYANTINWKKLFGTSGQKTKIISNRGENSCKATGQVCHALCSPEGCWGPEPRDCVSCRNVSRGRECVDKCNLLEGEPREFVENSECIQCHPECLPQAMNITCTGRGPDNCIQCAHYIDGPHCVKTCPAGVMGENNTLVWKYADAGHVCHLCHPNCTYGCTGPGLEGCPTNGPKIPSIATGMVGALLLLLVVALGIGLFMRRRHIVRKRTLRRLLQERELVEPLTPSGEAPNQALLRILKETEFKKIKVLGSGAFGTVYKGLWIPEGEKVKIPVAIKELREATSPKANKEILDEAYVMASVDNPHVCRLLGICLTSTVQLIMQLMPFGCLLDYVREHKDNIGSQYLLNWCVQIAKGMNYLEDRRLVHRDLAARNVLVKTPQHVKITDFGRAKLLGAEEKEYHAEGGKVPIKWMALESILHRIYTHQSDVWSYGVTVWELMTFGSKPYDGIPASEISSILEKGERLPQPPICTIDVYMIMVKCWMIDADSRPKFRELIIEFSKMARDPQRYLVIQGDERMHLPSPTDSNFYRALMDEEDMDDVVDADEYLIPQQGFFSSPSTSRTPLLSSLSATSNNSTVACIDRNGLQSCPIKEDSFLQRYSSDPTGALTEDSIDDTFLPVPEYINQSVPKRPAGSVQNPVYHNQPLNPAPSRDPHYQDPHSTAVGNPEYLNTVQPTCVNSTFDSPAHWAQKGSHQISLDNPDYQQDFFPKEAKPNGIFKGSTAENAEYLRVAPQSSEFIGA

SMILES | IC50 [1, 2] [nM] | IC50 [1, 3] [nM] | IC50 (EGFR L858R) [nM] | IC50 (EGFR L858R/T790M) [nM]
CN1CCC(c2ccc(-c3ccc4c(n3)C(=O)N(C(c3nc5ccccc5[nH]3)c3cc(F)ccc3O)C4)cc2)CC1 (centres unmarked) [Compound 028, 6-[1H-Benzimidazol-2-yl-(5-fluoro-2-hydroxy-phenyl)methyl]-2-[4-(1-methyl-4-piperidyl)phenyl]-5H-pyrrolo[3,4-b]pyridin-7-one] | 1360 | 30 | 2 | 0.3
CN1CCC(c2ccc(-c3ccc4c(c3)C(=O)N(C(c3nc5ccccc5[nH]3)c3cc(F)ccc3O)C4)c(F)c2)CC1 (centres unmarked) [Compound 029, 2-[1H-benzimidazol-2-yl-(5-fluoro-2-hydroxy-phenyl)-methyl]-6-[2-fluoro-4-(1-methyl-4-piperidyl)phenyl]isoindolin-1-one; formic acid] | 760 | 20 | 2 | 0.6
CN1CCC(c2ccc(-c3ccc4c(c3)C(=O)N(C(c3nc5cccnc5[nH]3)c3n[nH]c5c3CCC5)C4)cc2)CC1 (centres unmarked) [Compound 031, 2-[1H-Imidazo[4,5-b]pyridin-2-yl(1,4,5,6-tetrahydrocyclopenta[c]pyrazol-3-yl)methyl]-6-[4-(1-methyl-4-piperidy)phenyl]isoindolin-1-one] | > 10000 | 370 | 45 | 8
CN1CCC(c2ccc(-c3ccc4c(c3)C(=O)N(C(c3nc5ccccc5[nH]3)c3n[nH]c5c3CCC5)C4)cc2)CC1 (centres unmarked) [Compound 033, 2-[1H-Benzimidazol-2-yl(1,4,5,6-tetrahydrocyclopenta[c]pyrazol-3-yl)methyl]-6-[4-(1-methyl-4-piperidyl)phenyl]isoindolin-1-one] | 5230 | 340 | 24 | 6
COc1ccc(F)cc1C(c1nc2ccccc2[nH]1)n1cc2ccc(-c3ccc(C4CCN(C)CC4)cc3)c(F)c2n1 (centres unmarked) [Compound 035, 2-[1H-benzimidazol-2-yl-(5-fluoro-2-methoxy-phenyl)methyl]-7-fluoro-6-[4-(1-methyl-4-piperidyl)phenyl]indazole] | 3600 | 530 | 507 | 42
[2H]C(c1nc2ccccc2[nH]1)(c1cc(F)ccc1O)N1Cc2ccc(-c3ccc(C4CCN(C)CC4)cc3)cc2C1=O (centres unmarked) [Compound 036, 2-((1H-benzo[d]imidazol-2-yl)(5-fluoro-2-hydroxyphenyl)methyl-d)-6-(4-(1-methylpiperidin-4-yl)phenyl)isoindolin-1-one] | 170 | 7 | 2.6 | 0.7
[2H]C1([2H])c2ccc(-c3ccc(C4CCN(C)CC4)cc3)cc2C(=O)N1C([2H])(c1nc2ccccc2[nH]1)c1cc(F)ccc1O (centres unmarked) [Compound 039, 2-((1H-Benzo[d]imidazol-2-yl)(5-fluoro-2-hydroxyphenyl)methyl-d)-6-(4-(1-methylpiperidin-4-yl)phenyl)isoindolin-1-one-3,3-d2] | 280 | 14 | 2.9 | 0.5
CN(C)CCOc1ccc(-c2ccc3c(c2)C(=O)N(C(c2nc4ccccc4[nH]2)c2cc(F)ccc2O)C3)cc1 (centres unmarked) [Compound 040, 2-[1H-benzimidazol-2-yl-(5-fluoro-2-hydroxy-phenyl)methyl]-6-[4-[2-(dimethyl-amino)ethoxy]phenyl]isoindolin-1-one;hydrochloride] | 1570 | 10 | 7 | 2
CN(C)CCN(C)c1ccc(-c2ccc3c(c2)C(=O)N(C(c2nc4ccccc4[nH]2)c2cc(F)ccc2O)C3)cc1 (centres unmarked) [Compound 041, 2-[1H-benzimidazol-2-yl-(5-fluoro-2-hydroxy-phenyl)-methyl]-6-[4-[2-(dimethylamino)-ethyl-methyl-amino]phenyl]-isoindolin-1-one; hydrochloride] | 950 | 20 | 5 | 2
CN1CCC(c2ccc(-c3ccc4c(c3)C(=O)N(C(c3nc5ccccc5[nH]3)c3cccc(F)c3O)C4)cc2)CC1 (centres unmarked) [Compound 042, 2-[1H-benzimidazol-2-yl-(3-fluoro-2-hydroxy-phenyl)-methyl]-6-[4-(1-methyl-4-piperidyl)phenyl]isoindolin-1-one; dihydrochloride] | 4000 | 240 | 31 | 13
CN1CCC(c2ccc(-c3ccc4c(c3)C(=O)N(C(c3nc5ccccc5[nH]3)c3cc(Cl)ccc3O)C4)cc2)CC1 (centres unmarked) [Compound 044, 2-[1H-benzimidazol-2-yl-(5-chloro-2-hydroxy-phenyl)-methyl]-6-[4-(1-methyl-4-piperidyl)phenyl]isoindolin-1-one; hydrochloride] | 1500 | 50 | 6 | 2
CN1CCC(c2ccc(-c3ccc4c(c3)C(=O)N(C(c3ccn[nH]3)c3cc(F)ccc3O)C4)cc2)CC1 (centres unmarked) [Compound 045, 2-[(5-fluoro-2-hydroxy-phenyl)-(1H-pyrazol-3-yl)methyl]-6-[4-(1-methyl-4-piperidyl)phenyl]-isoindolin-1-one] | 3740 | 1170 | 32 | 18
CN1CCC(c2ccc(-c3ccc4c(c3)C(=O)N(C(c3nc5cc(F)ccc5[nH]3)c3cc(F)ccc3O)C4)cc2)CC1 (centres unmarked) [Compound 046, 2-[(5-fluoro-1H-benzimidazol-2-yl)-(5-fluoro-2-hydroxy-phenyl)-methyl]-6-[4-(1-methyl-4-piperidyl)phenyl]isoindolin-1-one; formic acid] | 860 | 20 | 4 | 0.7
CN1CCC(c2ccc(-c3ccc4c(c3)C(=O)N(C(c3nc5c(Cl)cccc5[nH]3)c3cc(F)ccc3O)C4)cc2)CC1 (centres unmarked) [Compound 047, 2-[(4-chloro-1H-benzimidazol-2-yl)-(5-fluoro-2-hydroxy-phenyl)-methyl]-6-[4-(1-methyl-4-piperidyl)phenyl]isoindolin-1-one; formic acid] | 1840 | 80 | 14 | 2
COc1ccc2[nH]c(C(c3cc(F)ccc3O)N3Cc4ccc(-c5ccc(C6CCN(C)CC6)cc5)cc4C3=O)nc2c1 (centres unmarked) [Compound 048, 2-[(5-fluoro-2-hydroxy-phenyl)-(5-methoxy-1H-benzimidazol-2-yl)methyl]-6-[4-(1-methyl-4-piperidyl)phenyl]isoindolin-1-one; formic acid] | 4760 | 760 | 35 | 4
CN1CC(c2ccc(-c3ccc4c(c3)C(=O)N(C(c3nc5ccccc5[nH]3)c3cc(F)ccc3O)C4)cc2)C1 (centres unmarked) [Compound 049, 2-[1H-benzimidazol-2-yl-(5-fluoro-2-hydroxy-phenyl)methyl]-6-[4-(1-methylazetidin-3-yl)phenyl]isoindolin-1-one] | 2540 | 20 | 6 | 2
Cc1ccc2[nH]c(C(c3cc(F)ccc3O)N3Cc4ccc(-c5ccc(C6CCN(C)CC6)cc5)cc4C3=O)nc2c1 (centres unmarked) [Compound 050, 2-[(5-fluoro-2-hydroxy-phenyl)-(5-methyl-1H-benzimidazol-2-yl)methyl]-6-[4-(1-methyl-4-piperidyl)phenyl]isoindolin-1-one; formic acid] | 3850 | 850 | 21 | 2
